“And” between values parts separate entries of the source, which are not always exact repeats. Identical values can stand only once. Like-named read-outs stand apart in the source and are kept apart here.
Experiment: in vivo
Parameters: species or system SD rats
Experimental: 105 was dissolved in 4% NaHCO3 in saline for IV administration. The detailed procedure of dosing solution preparation was presented in Appendix I.
Thirteen (13) animals were placed on the study. The animals in IV arm were free access to food and water. One extra animal was used for blank liver and plasma generation (5 mL per animal). The resulting blank liver and plasma was then applied to the development of bioanalytical method and sample bioanalysis for the entire study.
The IV injection was conducted via foot dorsal vein. Animals were free access to food and water before dose.
The animal is restrained manually. Approximately 150 μL of blood/time point is collected into sodium heparin tube via cardiac puncture for terminal bleeding (anesthetized under carbon dioxide). Blood sample will be put on ice and centrifuged to obtain plasma sample (2000 g, 5 min under 4° C.) within 10 minutes.
The animal will be euthanized with carbon dioxide inhalation. Open abdominal cavity with scissor to expose internal organs. Hold the carcass in an upright position and allow the organs to fall forward. Cut the connective tissues and remove the organs. Then the organs are rinsed with cold saline, dried on filtrate paper, placed into a screw-top tube and weighed, snap frozen by placing into dry-ice immediately.
Plasma and liver samples were stored at approximately −80° C. until analysis. The backup samples will be discarded after three weeks after in-life completion unless requested. The unused dosing solutions will be discarded within three weeks after completion of the study
Software: The PK parameters were determined by non-compartmental model of non-compartmental analysis tool, Pharsight Phoenix WinNonlin® 6.2 software.
Concentration data within 80%-120% of LLOQ was considered within normal instrumental variation and presented in the results. Terminal t1/2 calculation: Time points were automatic selected by “best fit” model for terminal half life estimation as the first option. Manual selection was applied when “best fit” could not well define the terminal phase.

[1] = IV 1 mg/kg, 0.25 hr, individual, 1 mg/kg
[2] = IV 1 mg/kg, 1 hr, individual, 1 mg/kg
[3] = IV 1 mg/kg, 2 hr, individual, 1 mg/kg

## CCN1CCN(C(=O)C2C3CCC(O3)C2C(=O)O)CC1 (stereo not drawn) [Compound 105]
105, IV 1 mg/kg, mean
  AUC(0-last) in liver: 1019 ng·h/g
[1]
  Liver-plasma concentration ratio of 105: 0.646
  liver concentration of 105: 988 ng/g
  plasma concentration of 105: 1530 ng/mL
[2]
  Liver-plasma concentration ratio of 105: 1.96
  liver concentration of 105: 446 ng/g
  plasma concentration of 105: 228 ng/mL
[3]
  Liver-plasma concentration ratio of 105: 2.19 and 6.09
  liver concentration of 105: 131 ng/g
  plasma concentration of 105: 45.2 ng/mL and 21.5 ng/mL
IV 1 mg/kg, 6 hr, individual
  liver concentration of 105: BQL
  plasma concentration of 105: BQL
IV 1 mg/kg, 6 hr, mean
  liver concentration of 105: BQL
  plasma concentration of 105: BQL
IV 1 mg/kg, 10 hr, individual
  liver concentration of 105: BQL
  plasma concentration of 105: BQL
IV 1 mg/kg, 10 hr, mean
  liver concentration of 105: BQL
  plasma concentration of 105: BQL
IV 1 mg/kg, 24 hr, individual
  liver concentration of 105: BQL
  plasma concentration of 105: BQL
IV 1 mg/kg, 24 hr, mean
  liver concentration of 105: BQL
  plasma concentration of 105: BQL
male, SD, rat, in vivo, iv, 1 mg/kg, IV 1 mg/kg, 0.25 hr, individual, read-out: Liver-plasma concentration ratio of 105
  Kp at 0.25 h: 0.554
male, SD, rat, in vivo, iv, 1 mg/kg, IV 1 mg/kg, 0.25 hr, individual, read-out: liver concentration of 105
  concentration at 0.25 hr: 1070 ng/g
male, SD, rat, in vivo, iv, 1 mg/kg, IV 1 mg/kg, 0.25 hr, individual, read-out: plasma concentration of 105
  concentration at 0.25 hr: 1930 ng/mL
male, SD, rat, in vivo, iv, 1 mg/kg, IV 1 mg/kg, 0.25 hr, mean, read-out: Liver-plasma concentration ratio of 105
  Kp at 0.25 h: 0.6
male, SD, rat, in vivo, iv, 1 mg/kg, IV 1 mg/kg, 0.25 hr, mean, read-out: liver concentration of 105
  concentration at 0.25 hr: 1030 ng/g
male, SD, rat, in vivo, iv, 1 mg/kg, IV 1 mg/kg, 0.25 hr, mean, read-out: plasma concentration of 105
  concentration at 0.25 hr: 1730 ng/mL
male, SD, rat, in vivo, iv, 1 mg/kg, IV 1 mg/kg, 1 hr, individual, read-out: Liver-plasma concentration ratio of 105
  Kp at 1 h: 2.19
male, SD, rat, in vivo, iv, 1 mg/kg, IV 1 mg/kg, 1 hr, individual, read-out: liver concentration of 105
  concentration at 1 h: 576 ng/g
male, SD, rat, in vivo, iv, 1 mg/kg, IV 1 mg/kg, 1 hr, individual, read-out: plasma concentration of 105
  concentration at 1 hr: 263 ng/mL
male, SD, rat, in vivo, iv, 1 mg/kg, IV 1 mg/kg, 1 hr, mean, read-out: Liver-plasma concentration ratio of 105
  Kp at 1 h: 2.07
male, SD, rat, in vivo, iv, 1 mg/kg, IV 1 mg/kg, 1 hr, mean, read-out: liver concentration of 105
  concentration at 1 h: 511 ng/g
male, SD, rat, in vivo, iv, 1 mg/kg, IV 1 mg/kg, 1 hr, mean, read-out: plasma concentration of 105
  concentration at 1 hr: 246 ng/mL
male, SD, rat, in vivo, iv, 1 mg/kg, IV 1 mg/kg, 2 hr, individual, read-out: liver concentration of 105
  concentration at 2 h: 99.2 ng/g
male, SD, rat, in vivo, iv, 1 mg/kg, IV 1 mg/kg, 2 hr, mean, read-out: Liver-plasma concentration ratio of 105
  Kp at 2 h: 4.14
male, SD, rat, in vivo, iv, 1 mg/kg, IV 1 mg/kg, 2 hr, mean, read-out: liver concentration of 105
  concentration at 2 h: 115 ng/g
male, SD, rat, in vivo, iv, 1 mg/kg, IV 1 mg/kg, 2 hr, mean, read-out: plasma concentration of 105
  concentration at 2 hr: 33.4 ng/mL
male, SD, rat, in vivo, 105 in liver, IV 1 mg/kg, mean, read-out: AUC(0-t)
  AUC(0-t): 1020
male, SD, rat, in vivo, 105 in liver, IV 1 mg/kg, mean, read-out: Cmax
  Cmax: 1030 ng/mL
male, SD, rat, in vivo, 105 in plasma, IV 1 mg/kg, mean
  MRT inf: 19.7 min
male, Sprague-Dawley, rat, in vivo, 105, IV 1 mg/kg, mean, read-out: Cmax in liver
  Cmax: 1030 ng/g
male, Sprague-Dawley, rat, in vivo, 105 in liver, IV 1 mg/kg, mean
  Tmax: 15 min
male, Sprague-Dawley, rat, in vivo, 105 in plasma, IV 1 mg/kg, mean
  clearance: 10.9 mL/min/kg
male, Sprague-Dawley, rat, in vivo, 105 in plasma, IV 1 mg/kg, mean, read-out: AUC(0-t) (AUClast)
  AUC(0-t): 1510 ng·h/mL
male, Sprague-Dawley, rat, in vivo, 105 in plasma, IV 1 mg/kg, mean, read-out: AUC(0-∞) (AUCINF)
  AUC(0-inf): 1530 ng·h/mL
male, Sprague-Dawley, rat, in vivo, 105 in plasma, IV 1 mg/kg, mean, read-out: Vss
  Vd: 0.215 L/kg
male, Sprague-Dawley, rat, in vivo, 105 in plasma, IV 1 mg/kg, mean, read-out: t1/2z (terminal half life) (converted)
  half-life: 18.5 min

Source: patent publication US11236102B2, “Oxabicycloheptane prodrugs” (Lixte Biotechnology, Inc., priority 2015, dated 2022)
